Columns and labels:
[1] = target: T1, Sodium-dependent serotonin transporter (Rattus norvegicus, UniProt P31652); test: Inhibitory activity against incorporation of Serotonin transporter uptake into the differentiated N-2a cells.; format: cell-based
[2] = target: T1, Sodium-dependent serotonin transporter; test: Inhibitory activity against incorporation of [3H]5-HT transporter uptake into the differentiated N-2a cells.; format: cell-based

T1 sequence (P31652 whole entry): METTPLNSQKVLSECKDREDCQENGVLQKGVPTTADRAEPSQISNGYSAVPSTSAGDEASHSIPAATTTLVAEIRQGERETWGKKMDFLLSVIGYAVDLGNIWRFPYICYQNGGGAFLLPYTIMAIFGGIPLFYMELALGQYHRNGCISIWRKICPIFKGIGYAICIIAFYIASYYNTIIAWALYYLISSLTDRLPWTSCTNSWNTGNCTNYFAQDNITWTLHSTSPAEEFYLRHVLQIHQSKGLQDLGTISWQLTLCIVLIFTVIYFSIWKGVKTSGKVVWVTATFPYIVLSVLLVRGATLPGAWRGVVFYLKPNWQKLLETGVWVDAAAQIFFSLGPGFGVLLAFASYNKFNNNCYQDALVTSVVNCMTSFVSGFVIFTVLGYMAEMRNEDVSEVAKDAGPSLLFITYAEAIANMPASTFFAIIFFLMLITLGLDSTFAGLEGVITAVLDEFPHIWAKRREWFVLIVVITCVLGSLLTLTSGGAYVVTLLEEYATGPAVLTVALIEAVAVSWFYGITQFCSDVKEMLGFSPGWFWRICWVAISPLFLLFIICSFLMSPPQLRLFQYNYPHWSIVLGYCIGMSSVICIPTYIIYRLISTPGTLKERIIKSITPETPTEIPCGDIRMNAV

Row | Compound | IC50 [1] | IC50 [2]
1 | NCCc1c[nH]c2cc(O)c(O)cc12 | 6 µM | –
2 | Cc1c(O)c(O)c(C)c2c(CCN)c[nH]c12 | – | 19.7 µM
3 | Cc1c(O)c(O)cc2c(CCN)c[nH]c12 | – | 51.8 µM
4 | Cc1c(O)c(O)cc2[nH]cc(CCN)c12 | – | 23 µM

Reference: ChEMBL document CHEMBL1123040, “Molecular mechanism of action of 5,6-dihydroxytryptamine. Synthesis and biological evaluation of 4-methyl-, 7-methyl-, and 4,7-dimethyl-5,6-dihydroxytryptamines” (J Med Chem, 1985)
